Results: US20230265068A1, “TRANSIENT RECEPTOR POTENTIAL CANONICAL 3 INHIBITORS AND METHODS OF USE THEREOF” (University of Tennessee Research Foundation, priority 2020, published 2023)

Molecular target: T1, TRPC3 (Homo sapiens, UniProt Q13507)
T1 sequence (Q13507 1-921): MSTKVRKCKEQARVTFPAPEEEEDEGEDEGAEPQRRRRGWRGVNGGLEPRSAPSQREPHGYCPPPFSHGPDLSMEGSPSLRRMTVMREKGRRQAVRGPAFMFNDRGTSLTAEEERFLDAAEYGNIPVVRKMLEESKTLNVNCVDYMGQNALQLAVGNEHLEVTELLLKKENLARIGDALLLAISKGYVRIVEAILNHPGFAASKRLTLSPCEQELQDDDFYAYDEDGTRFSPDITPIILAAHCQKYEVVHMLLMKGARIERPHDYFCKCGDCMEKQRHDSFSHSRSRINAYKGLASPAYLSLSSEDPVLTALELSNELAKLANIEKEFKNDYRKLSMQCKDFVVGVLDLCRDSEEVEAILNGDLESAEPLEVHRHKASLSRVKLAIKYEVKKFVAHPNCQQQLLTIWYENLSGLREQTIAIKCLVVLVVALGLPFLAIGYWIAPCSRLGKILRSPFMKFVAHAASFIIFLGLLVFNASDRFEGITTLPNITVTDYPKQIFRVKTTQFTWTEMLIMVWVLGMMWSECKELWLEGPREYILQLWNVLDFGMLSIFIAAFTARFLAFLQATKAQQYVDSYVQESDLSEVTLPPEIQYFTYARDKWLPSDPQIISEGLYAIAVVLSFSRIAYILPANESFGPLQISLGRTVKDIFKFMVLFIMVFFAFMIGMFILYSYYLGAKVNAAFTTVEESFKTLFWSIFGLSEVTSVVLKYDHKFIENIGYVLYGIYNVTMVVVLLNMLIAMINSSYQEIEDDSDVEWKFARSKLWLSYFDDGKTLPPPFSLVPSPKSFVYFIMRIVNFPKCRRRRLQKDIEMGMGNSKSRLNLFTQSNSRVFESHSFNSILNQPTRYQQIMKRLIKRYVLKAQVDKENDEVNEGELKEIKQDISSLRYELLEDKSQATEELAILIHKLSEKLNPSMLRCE
Assay: whole-cell patch clamp of HEK293 cells transfected with hTRPC3, currents activated by GSK1702934A
Assay type: cell-based
Design: expressed in transfected cells; host or cells: HEK293 (CRL-1573), transient transfection, pMO vector
Conditions: for inhibition at 10 µM: 10 μM compound in presence of agonist GSK1702934A, HEK293 whole-cell peak current, read-out: hTRPC3 % Inhibition at 10 μM (mean ± SEM); for IC50: agonist GSK1702934A, HEK293 whole-cell patch clamp, read-out: hTRPC3 IC50 (μM, mean ± SEM)
Method: Human embryonic kidney 293 (HEK293; catalog number CRL-1573) cells were cultured in Dulbecco's modified Eagle's medium (Invitrogen) supplemented with 10% fetal bovine serum and 1% penicillin-streptomycin at 37° C. and 5% CO2. Constructs cloned in pMO (a pcDNA3-modified vector) were co-transfected with GFP-pMO, using Lipofectamine 2000 (Invitrogen) according to the manufacturer's instructions. Macroscopic currents in the whole-cell patch clamp configuration were recorded 18-24 h post-transfection. The extracellular solution contained 140 mM NaCl, 6 mM KCl, 2 mM MgCl2, 10 mM HEPES, and 10 mM glucose (pH 7.4). Pipettes were made of borosilicate glass (outer diameter, 1.5 mm; inner diameter, 1.10 mm; Sutter Instruments) and fire-polished with a resistance between 2.8 and 4.0 megaohms when filled with an intracellular solution that contained 140 mM CsCl, 5 mM EGTA, and 10 mM HEPES, pH 7.2. Currents were recorded with a Multiclamp 700B amplifier (Molecular Devices) using a 1-s ramp from −100 to 100 mV. Agonist and antagonists perfused were dissolved in the bath solution prior experiments: TRP channel agonists Allyl isothiocyanate (AITC; TRPA1), capsaicin (TRPV1), and menthol (TRPM8) were obtained from Sigma, GSK1016790A (TRPV4) from Cayman chemicals, and GSK1702934A (TRPC3, TRPC6 and TRPC7) from Tocris Bioscience. Antagonist Pyr3 was obtained from Tocris Bioscience, all other antagonists were synthesized in house. Data were acquired with a sampling rate of 20 kHz, low-pass filtered (10 kHz), and analyzed offline using Clampfit v10.4.2.0 (Molecular Devices).
Electrophysiology results were expressed as means±SD. Data were plotted, and sigmoidal fitting was done using OriginPro (from OriginLab), with the following Boltzmann function:
Using the patch clamp technique in the whole-cell configuration, compounds were screened by challenging hTRPC3 overexpressing HEK293 cells with GSK1702934A to activate TRPC3 and each of the synthesized compounds (10 μM) individually in the presence of the agonist.
To avoid tachyphylaxis and determine the IC50 of compound 22, each point of the dose response curve (FIG. 1B) was done individually on a cell and exchanging coverslips between cells. […] FIGS. 1D-1I show the inhibition of TRPC3-mediated currents by compound 22 and Pyr3 (serving as the reference control). […] Similar results were obtained when OAG was used as the agonist (data not shown).

| SMILES | inhibition at 10 µM | IC50 |
| --- | --- | --- |
| CCOC(=O)c1cnn(-c2ccc(-n3ccccc3=O)cc2)c1C(F)(F)F [Compound 1, Ethyl 1-(4-(2-oxopyridin-1(2H)-yl)phenyl)-5-(trifluoromethyl)-1H-pyrazole-4-carboxylate] | 49.5 ± 3.91% | – |
| CCOC(=O)c1cnn(-c2ccc(-n3ccc(Cl)cc3=O)cc2)c1C(F)(F)F [Compound 2, Ethyl 1-(4-(4-chloro-2-oxopyridin-1(2H)-yl)phenyl)-5-(trifluoromethyl)-1H-pyrazole-4-carboxylate] | 71.1 ± 2.66% | – |
| CCOC(=O)c1cnn(-c2ccc(-n3cc(Cl)ccc3=O)cc2)c1C(F)(F)F [Compound 3, Ethyl 1-(4-(5-chloro-2-oxopyridin-1(2H)-yl)phenyl)-5-(trifluoromethyl)-1H-pyrazole-4-carboxylate] | 54 ± 7.25% | – |
| CCOC(=O)c1cnn(-c2ccc(-n3ccc(Cl)c(Cl)c3=O)cc2)c1C(F)(F)F [Compound 4, Ethyl 1-(4-(3,4-dichloro-2-oxopyridin-1(2H)-yl)phenyl)-5-(trifluoromethyl)-1H-pyrazole-4-carboxylate] | 51.4 ± 4.35% | – |
| CCOC(=O)c1cnn(-c2ccc(-n3cc(Cl)c(Cl)cc3=O)cc2)c1C(F)(F)F [Compound 5, Ethyl 1-(4-(4,5-dichloro-2-oxopyridin-1(2H)-yl)phenyl)-5-(trifluoromethyl)-1H-pyrazole-4-carboxylate] | 39.1 ± 2.31% | – |
| CCOC(=O)c1cnn(-c2ccc(-n3cc(Cl)cc(Cl)c3=O)cc2)c1C(F)(F)F [Compound 6, Ethyl 1-(4-(3,5-dichloro-2-oxopyridin-1(2H)-yl)phenyl)-5-(trifluoromethyl)-1H-pyrazole-4-carboxylate] | 50.5 ± 5.49% | – |
| CCOC(=O)c1cnn(-c2ccc(-n3cc(Cl)c(Cl)c(Cl)c3=O)cc2)c1C(F)(F)F [Compound 9, Ethyl 1-(4-(3,4,5-trichloro-2-oxopyridin-1(2H)-yl)phenyl)-5-(trifluoromethyl)-1H-pyrazole-4-carboxylate] | 39.1 ± 2.31% | – |
| CCNC(=O)c1cnn(-c2ccc(-n3ccc(Cl)cc3=O)cc2)c1C(F)(F)F [Compound 21, 1-(4-(4-chloro-2-oxopyridin-1(2H)-yl)phenyl)-N-ethyl-5-(trifluoromethyl)-1H-pyrazole-4-carboxamide] | 84.52 ± 0.722% | – |
| CCNC(=O)c1cnn(-c2ccc(-n3cc(Cl)c(Cl)cc3=O)cc2)c1C(F)(F)F [Compound 23] | 51.5 ± 6% | – |
| CCNC(=O)c1cnn(-c2ccc(-n3ccc(Cl)c(F)c3=O)cc2)c1C(F)(F)F [Compound 24] | 55.5 ± 7.07% | – |
| CCNC(=O)c1cnn(-c2ccc(-n3ccc(Cl)c(Br)c3=O)cc2)c1C(F)(F)F [Compound 25, 1-(4-(3-bromo-4-chloro-2-oxopyridin-1(2H)-yl)phenyl)-N-ethyl-5-(trifluoromethyl)-1H-pyrazole-4-carboxamide] | 76 ± 6.65% | – |
| CCNC(=O)c1cnn(-c2ccc(-n3ccc(C(F)(F)F)c(Cl)c3=O)cc2)c1C(F)(F)F [Compound 27, 1-(4-(3-chloro-2-oxo-4-(trifluoromethyl)pyridin-1(2H)-yl)phenyl)-N-ethyl-5-(trifluoromethyl)-1H-pyrazole-4-carboxamide] | 89.4 ± 6.45% | – |
| CCNC(=O)c1cnn(-c2ccc(-n3ccc(O)c(Cl)c3=O)cc2)c1C(F)(F)F [Compound 32, 1-(4-(3-chloro-4-hydroxy-2-oxopyridin-1(2H)-yl)phenyl)-N-ethyl-5-(trifluoromethyl)-1H-pyrazole-4-carboxamide] | 96 ± 1.37% | 0.35 ± 0.09 µM |
| CCNC(=O)c1cnn(-c2ccc(-n3cc(Cl)c(Cl)c(Cl)c3=O)cc2)c1C(F)(F)F [Compound 33] | 45.2 ± 3.59% | – |
| CCNC(=O)c1cnn(-c2ccc(-n3cc(Br)c(Cl)c(Br)c3=O)cc2)c1C(F)(F)F [Compound 34] | 34 ± 6.52% | – |
| NC(=O)c1cnn(-c2ccc(-n3ccc(Cl)c(Cl)c3=O)cc2)c1C(F)(F)F [Compound 37, 1-(4-(3,4-dichloro-2-oxopyridin-1(2H)-yl)phenyl)-5-(trifluoromethyl)-1H-pyrazole-4-carboxamide] | 40.2 ± 10.3% | – |
| CCCNC(=O)c1cnn(-c2ccc(-n3ccc(Cl)c(Cl)c3=O)cc2)c1C(F)(F)F [Compound 39, 1-(4-(3,4-dichloro-2-oxopyridin-1(2H)-yl)phenyl)-N-propyl-5-(trifluoromethyl)-1H-pyrazole-4-carboxamide] | 71.5 ± 4.51% | – |
| CCCCNC(=O)c1cnn(-c2ccc(-n3ccc(Cl)c(Cl)c3=O)cc2)c1C(F)(F)F [Compound 40, N-butyl-1-(4-(3,4-dichloro-2-oxopyridin-1(2H)-yl)phenyl)-5-(trifluoromethyl)-1H-pyrazole-4-carboxamide] | 40.2 ± 3.95% | – |
| CC(C)NC(=O)c1cnn(-c2ccc(-n3ccc(Cl)c(Cl)c3=O)cc2)c1C(F)(F)F [Compound 41, 1-(4-(3,4-dichloro-2-oxopyridin-1(2H)-yl)phenyl)-N-isopropyl-5-(trifluoromethyl)-1H-pyrazole-4-carboxamide] | 25.8 ± 8.57% | – |
| CCN(CC)C(=O)c1cnn(-c2ccc(-n3ccc(Cl)c(Cl)c3=O)cc2)c1C(F)(F)F [Compound 43, 1-(4-(3,4-dichloro-2-oxopyridin-1(2H)-yl)phenyl)-N,N-diethyl-5-(trifluoromethyl)-1H-pyrazole-4-carboxamide] | 94.8 ± 2.75% | 4.32 ± 0.98 µM |
| O=C(NC1CC1)c1cnn(-c2ccc(-n3ccc(Cl)c(Cl)c3=O)cc2)c1C(F)(F)F [Compound 44, N-cyclopropyl-1-(4-(3,4-dichloro-2-oxopyridin-1(2H)-yl)phenyl)-5-(trifluoromethyl)-1H-pyrazole-4-carboxamide] | 74.8 ± 5.65% | – |
| O=C(c1cnn(-c2ccc(-n3ccc(Cl)c(Cl)c3=O)cc2)c1C(F)(F)F)N1CCCC1 [Compound 45, 3,4-dichloro-1-(4-(4-(pyrrolidine-1-carbonyl)-5-(trifluoromethyl)-1H-pyrazol-1-yl)phenyl)pyridin-2(1H)-one] | 86.7 ± 3.82% | – |
| CCc1nnc(-c2cnn(-c3ccc(-n4ccc(Cl)c(Cl)c4=O)cc3)c2C(F)(F)F)o1 [Compound 46, 3,4-dichloro-1-(4-(4-(5-ethyl-1,3,4-oxadiazol-2-yl)-5-(trifluoromethyl)-1H-pyrazol-1-yl)phenyl)pyridin-2(1H)-one] | 92.9 ± 6.78% | 0.29 ± 0.05 µM |
| CCNS(=O)(=O)c1cnn(-c2ccc(-n3ccc(Cl)c(Cl)c3=O)cc2)c1C(F)(F)F [Compound 48, 1-(4-(3,4-dichloro-2-oxopyridin-1(2H)-yl)phenyl)-N-ethyl-5-(trifluoromethyl)-1H-pyrazole-4-sulfonamide] | 67.8 ± 1.75% | – |
| CCNC(=O)c1cn(-c2ccc(-n3ccc(Cl)c(Cl)c3=O)cc2)nc1C(F)(F)F [Compound 49, 1-(4-(3,4-dichloro-2-oxopyridin-1(2H)-yl)phenyl)-N-ethyl-3-(trifluoromethyl)-1H-pyrazole-4-carboxamide] | 97.23 ± 0.89% | 1.1 ± 0.24 µM |
